This passage reports IC50 results from patent US11780841B2, “3,6-methano-1H-pyrrolo[3,2-b]pyridine and 3,6-methano-1H-pyrrolo[3,2-c]pyridine compounds and medicaments using same” (priority 2018, dated 2023).

Each structure is given as a SMILES string. A value given as a limit tells only on which side of the number the result lay.

This experiment relates to recombinant rabies virus 1088 strain expressing Gaussia Luciferase (GLuc) (1088/GLuc). In kind it is cell-based. The settings on record: read-out: Anti-rabies activity.

In the case of `O=C(NCc1cccc2ccccc12)[C@@]12C[C@@H]3CN(CCO)[C@@H]([C@@H]3CN1)[C@H]2Cc1ccccc1` [IF-758], the IC50 was < 5 µM. The value for `CC(C)CN1C[C@H]2C[C@]3(C(=O)NCc4cccc5ccccc45)NC[C@H]2[C@H]1[C@H]3Cc1cccc2ccccc12` [IF-778] was < 5 µM; that for `O=C(NCc1cccc2ccccc12)[C@@]12C[C@@H]3CN(Cc4ccc(O)cc4)[C@@H]([C@@H]3CN1)[C@H]2Cc1cccc2ccccc12` [IF-779] was 10 to 30 µM. On to `CC(C)NC(=O)[C@@]12C[C@@H]3CN(Cc4cccc5ccccc45)[C@@H]([C@@H]3CN1)[C@H]2CCc1ccccc1` [IF-789], for which the IC50 was in the range of 10 to 30 µM. With `O=C(NCc1cccc2ccccc12)[C@@]12C[C@@H]3CN(Cc4ccccc4)[C@@H]([C@@H]3CN1)[C@H]2Cc1ccccc1` [IF-805], the IC50 was 10 to 30 µM. As for `CC(C)C[C@@H]1[C@@H]2[C@@H]3CN[C@@]1(C(=O)NCc1ccc(F)cc1)C[C@@H]3CN2Cc1ccccc1` [IF-807], the IC50 is < 5 µM. For `CC(C)CN1C[C@H]2C[C@]3(C(=O)NCc4ccc(F)cc4)NC[C@H]2[C@H]1[C@H]3Cc1ccccc1` [IF-815], the IC50 was < 5 µM. To `CC(C)CCN1C[C@H]2C[C@]3(C(=O)NCCC(=O)O)NC[C@H]2[C@H]1[C@H]3CCc1ccccc1` [IF-830] belongs 10 to 30 µM.

As to `CC(C)C[C@@H]1[C@@H]2[C@@H]3CN[C@@]1(C(=O)NCc1cccc4ccccc14)C[C@@H]3CN2Cc1ccccc1` [IF-837], the IC50 is 5 to 10 µM. The value for `CC(C)C[C@@H]1[C@@H]2[C@@H]3CN[C@@]1(C(=O)NCc1ccc(C(F)(F)F)cc1)C[C@@H]3CN2Cc1ccccc1` [IF-838] was 10 to 30 µM. The value for `CC(C)C[C@@H]1[C@@H]2[C@@H]3CN[C@@]1(C(=O)NCc1ccccc1)C[C@@H]3CN2Cc1ccc(Cl)cc1` [IF-839] was 5 to 10 µM; that for `CC(C)C[C@@H]1[C@@H]2[C@@H]3CN[C@@]1(C(=O)NCc1ccccc1)C[C@@H]3CN2Cc1cccc(Cl)c1` [IF-840] was 5 to 10 µM. Turning to `COc1ccc(CN2C[C@H]3C[C@]4(C(=O)NCc5ccccc5)NC[C@H]3[C@H]2[C@H]4CC(C)C)cc1` [IF-841], the IC50 is 5 to 10 µM. To `Cc1ccc(CN2C[C@H]3C[C@]4(C(=O)NCc5ccccc5)NC[C@H]3[C@H]2[C@H]4CC(C)C)cc1` [IF-842] belongs < 5 µM. On to `CC(C)CCNC(=O)[C@@]12C[C@@H]3CN(CC(C)C)[C@@H]([C@@H]3CN1)[C@H]2Cc1ccccc1` [IF-845], for which the IC50 lay within 10 to 30 µM. To `CC(C)C[C@@H]1[C@@H]2[C@@H]3CN[C@@]1(C(=O)NCc1ccc(Cl)cc1)C[C@@H]3CN2CC(C)C` [IF-846] belongs 10 to 30 µM; to `CC(C)C[C@@H]1[C@@H]2[C@@H]3CN[C@@]1(C(=O)NCc1ccccc1)C[C@@H]3CN2Cc1ccc(N(C)C)cc1` [IF-848], 5 to 10 µM. To `CC(C)C[C@@H]1[C@@H]2[C@@H]3CN[C@@]1(C(=O)NCc1ccccc1)C[C@@H]3CN2Cc1ccc(C(C)(C)C)cc1` [IF-849] belongs 5 to 10 µM; to `CC(C)CC[C@@H]1[C@@H]2[C@@H]3CN[C@@]1(C(=O)NCc1ccccc1)C[C@@H]3CN2CC(C)C` [IF-850], 5 to 10 µM. Take `CC(C)CCN1C[C@H]2C[C@]3(C(=O)NCc4ccccc4)NC[C@H]2[C@H]1[C@H]3CC(C)C` [IF-851]: the IC50 fell in the range of 10 to 30 µM. To `CCOc1ccc(CN2C[C@H]3C[C@]4(C(=O)NCc5ccccc5)NC[C@H]3[C@H]2[C@H]4CC(C)C)cc1` [IF-853] belongs 5 to 10 µM; to `CC(C)C[C@@H]1[C@@H]2[C@@H]3CN[C@@]1(C(=O)NCc1ccc4ccccc4c1)C[C@@H]3CN2Cc1ccccc1` [IF-854], 5 to 10 µM. The value for `CCN1C[C@@H]2[C@H]3CN(Cc4ccc(C)cc4)[C@@H]2[C@@H](CC(C)C)[C@]1(C(=O)NCc1ccccc1)C3` [IF-855] was 5 to 10 µM; that for `Cc1ccc(CN2C[C@H]3C[C@@]4(C(=O)NCc5ccccc5)[C@H](CC(C)C)[C@@H]2[C@@H]3CN4CC(C)C)cc1` [IF-856] was < 5 µM.
